Experimental data reported in patent US10053468B2, “Heterocyclic compound” (TAKEDA PHARMACEUTICAL COMPANY LIMITED, priority 2013, dated 2018).
Read-outs that look alike come from different tables or passages of the source.

Key:
RORγt [1] = target: T1, RORγt (Homo sapiens, UniProt P51449); assay: RORγt binding test using fluorescent-labeled synthetic ligand (TR-FRET); details: read-out: Binding inhibitory rate of fluorescent-labeled synthetic ligand to RORγt at test compound 1 μM (%)
T1 sequence (P51449 1-497 isoform P51449-2): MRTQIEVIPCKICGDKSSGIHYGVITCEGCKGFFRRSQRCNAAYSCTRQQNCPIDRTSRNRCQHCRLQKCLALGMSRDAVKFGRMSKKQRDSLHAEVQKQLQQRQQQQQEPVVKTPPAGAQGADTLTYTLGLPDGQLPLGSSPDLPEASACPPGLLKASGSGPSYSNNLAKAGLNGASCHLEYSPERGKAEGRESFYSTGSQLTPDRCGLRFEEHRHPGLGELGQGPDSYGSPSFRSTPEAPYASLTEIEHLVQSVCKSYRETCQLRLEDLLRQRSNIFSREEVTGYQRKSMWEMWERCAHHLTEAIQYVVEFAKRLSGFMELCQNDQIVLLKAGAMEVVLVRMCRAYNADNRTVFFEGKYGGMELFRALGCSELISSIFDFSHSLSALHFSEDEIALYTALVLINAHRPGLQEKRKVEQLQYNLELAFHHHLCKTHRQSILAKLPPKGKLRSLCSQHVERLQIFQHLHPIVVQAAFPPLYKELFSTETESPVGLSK
Description: RORγt Binding Test Using Fluorescent-labeled Synthetic Ligand
The binding activity of the test compound to RORγt was measured by a time resolved fluorescence resonance energy transfer method (TR-FRET) utilizing histidine-tagged RORγt, fluorescent-labeled synthetic ligand, and terbium-labeled anti-histidine tag antibody (Invitrogen). First, a test compound diluted with an assay buffer (20 mM Tris-HCl (pH 7.5), 100 mM NaCl, 1 mM DTT, 0.1% BSA) was added to a 384 well plate by 3 μL. Then, RORγt diluted with an assay buffer to 240 nM was added by 3 μL, after which fluorescent-labeled synthetic ligand diluted with the assay buffer to 12 μM was added by 3 μL, and the mixture was stood at room temperature for 20 min. Thereafter, a terbium-labeled anti-histidine tag antibody diluted with the assay buffer to 8 nM was added by 3 μL. The mixture was stood at room temperature for 20 min, and fluorescence intensity (excitation wavelength 320 nm, fluorescence wavelength 520 nm, delay time 100 microseconds) was measured by Envision (PerkinElmer).

RORγt [2] = target: T1, RORγt; assay: Jurkat reporter test (human IL-17 ROR response element luciferase, RORγt vector); assay type: cell-based; details: read-out: Luminescence level inhibitory rate at test compound 3 μM (%)
Outline: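 Jurkat cells were electroporated (1350 V, 10 ms, 3 pulses) with reporter constructs, then cultured overnight with compound in RPMI containing 10% lipid-reduced FCS, 10 mM HEPES pH 7.5 and 5 μM lovastatin. Luciferase was quantified by Bright-Glo luminescence after 10 min at room temperature.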

RORγt [3] = target: T1, RORγt; assay: Cofactor recruitment test (Alpha Screen, biotinylated SRC-1 peptide); assay type: biochemical; details: read-out: Signal value inhibitory rate at test compound 1 μM (%)
Description: Cofactor Recruitment Test
Cofactor recruitment test was performed by Alpha Screen (Histidine Detection Kit, PerkinElmer) method. First, a test compound was diluted with an assay buffer (50 mM Tris-HCl (pH 7.5), 50 mM KCl, 1 mM DTT, 0.1% BSA) and added to a 384 well plate by 5 μL. […] The mixture was stood in a dark place for 1 hr, and the signal value was measured by Envision (PerkinElmer).

RORγt [4] = target: T1, RORγt; assay: RORγt binding test using fluorescent-labeled cholesterol (TR-FRET); details: read-out: Binding inhibitory rate of fluorescent-labeled cholesterol to RORγt at test compound 1 μM (%)
Outline: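 TR-FRET displacement with His-tagged RORγt, BODIPY-cholesterol and Tb-anti-His antibody in Tris-HCl pH 7.5, 100 mM NaCl, 1 mM DTT, 0.1% BSA. Compound, RORγt and labelled cholesterol were incubated 20 min at RT, then antibody was added for another 20 min.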

[5] = test compound 3 μM, Jurkat cells

inhibition at 3 µM (RORγt [2]; [5]) | inhibition at 1 µM (RORγt [4]) | Structure (SMILES) | inhibition at 1 µM (RORγt [1]) | inhibition at 1 µM (RORγt [3]) | inhibition at 3 µM (RORγt [2]; Jurkat)
 |  | CC[Si](C)(C)c1c(F)cc(NC(=O)[C@H]2c3ccc(OC)cc3CCN2C(=O)Cc2cc(O)no2)cc1F [Example 88, (1R)-N-(4-(ethyl (dimethyl)silyl)-3,5-difluorophenyl)-2-((3-hydroxy-1,2-oxazol-5-yl)acetyl)-6-methoxy-1,2,3,4-tetrahydroisoquinoline-1-carboxamide] | 102% |  | 
101% | 101% | CCOc1ccc2c(c1)CCN(C(=O)CCCC(=O)O)[C@H]2C(=O)Nc1cc(F)c(C(C)(C)COC)c(F)c1 [Example 164, 5-((1R)-1-((3,5-difluoro-4-(1-methoxy-2-methylpropan-2-yl)phenyl)carbamoyl)-6-ethoxy-3,4-dihydroisoquinolin-2(1H)-yl)-5-oxopentanoic acid] |  | 96% | 
101% | 101% | CCOc1ccc2c(c1)CCN(C(=O)Cc1cc(O)no1)[C@H]2C(=O)Nc1cc(F)c(C(C)(C)COC)c(F)c1 [Example 165, (1R)-N-(3,5-difluoro-4-(1-methoxy-2-methylpropan-2-yl)phenyl)-6-ethoxy-2-((3-hydroxy-1,2-oxazol-5-yl)acetyl)-1,2,3,4-tetrahydroisoquinoline-1-carboxamide] |  | 96% | 
99% | 97% | CCOCC(C)(C)c1c(F)cc(NC(=O)[C@H]2c3ccc(OCC)cc3CCN2C(=O)Cc2cc(O)no2)cc1F [Example 168, (1R)-6-ethoxy-N-(4-(1-ethoxy-2-methylpropan-2-yl)-3,5-difluorophenyl)-2-((3-hydroxy-1,2-oxazol-5-yl)acetyl)-1,2,3,4-tetrahydroisoquinoline-1-carboxamide] |  | 86% | 
 |  | CCOc1ccc2c(c1)CCN(C(=O)CCC(=O)O)[C@H]2C(=O)Nc1cc(F)c([Si](C)(C)C)c(F)c1 [Example 180, 4-((1R)-1-((3,5-difluoro-4-(trimethylsilyl)phenyl)carbamoyl)-6-ethoxy-3,4-dihydroisoquinolin-2(1H)-yl)-4-oxobutanoic acid] | 101% | 93% | 100%
99% |  | CCOc1ccc2c(c1)CCN(C(=O)CCCC(=O)O)[C@H]2C(=O)Nc1cc(F)c2c(c1)CCC2(C)C [Example 182, 5-((1R)-6-ethoxy-1-((7-fluoro-1,1-dimethyl-2,3-dihydro-1H-inden-5-yl)carbamoyl)-3,4-dihydroisoquinolin-2(1H)-yl)-5-oxopentanoic acid] | 101% | 67% | 
 |  | CCOc1ccc2c(c1)CCN(C(=O)CCCC(=O)O)[C@H]2C(=O)Nc1ccc([Si](C)(C)C)c(F)c1 [Example 183, 5-((1R)-6-ethoxy-1-((3-fluoro-4-(trimethylsilyl)phenyl)carbamoyl)-3,4-dihydroisoquinolin-2 (1H)-yl)-5-oxopentanoic acid] | 101% | 91% | 102%
 |  | CCOc1ccc2c(c1)CCN(C(=O)CCCC(=O)O)[C@H]2C(=O)Nc1cc(F)c([Si](C)(C)C)cc1F [Example 184, 5-((1R)-1-((2,5-difluoro-4-(trimethylsilyl)phenyl)carbamoyl)-6-ethoxy-3,4-dihydroisoquinolin-2(1H)-yl)-5-oxopentanoic acid] | 101% | 93% | 100%
 |  | C[Si](C)(C)c1ccc(NC(=O)[C@H]2c3ccc(OC(F)F)cc3CCN2C(=O)CCCC(=O)O)cc1F [Example 194, 5-((1R)-6-(difluoromethoxy)-1-((3-fluoro-4-(trimethylsilyl)phenyl)carbamoyl)-3,4-dihydroisoquinolin-2(1H)-yl)-5-oxopentanoic acid] | 101% | 87% | 100%
 |  | C[Si](C)(C)c1c(F)cc(NC(=O)[C@H]2c3ccc(OC(F)F)cc3CCN2C(=O)CCC(=O)O)cc1F [Example 195, 4-((1R)-6-(difluoromethoxy)-1-((3,5-difluoro-4-(trimethylsilyl)phenyl)carbamoyl)-3,4-dihydroisoquinolin-2 (1H)-yl)-4-oxobutanoic acid] | 101% | 89% | 101%
 |  | C[Si](C)(C)c1c(F)cc(NC(=O)[C@H]2c3ccc(OC(F)F)cc3CCN2C(=O)CCCC(=O)O)cc1F [Example 196, 5-((1R)-6-(difluoromethoxy)-1-((3,5-difluoro-4-(trimethylsilyl)phenyl)carbamoyl)-3,4-dihydroisoquinolin-2 (1H)-yl)-5-oxopentanoic acid] | 102% | 91% | 100%
 |  | CCOc1ccc2c(c1)CCN(C(=O)[C@H](O)CCC(=O)O)[C@H]2C(=O)Nc1cc(F)c([Si](C)(C)C)c(F)c1 [Example 209, (4R)-5-((1R)-1-((3,5-difluoro-4-(trimethylsilyl)phenyl)carbamoyl)-6-ethoxy-3,4-dihydroisoquinolin-2(1H)-yl)-4-hydroxy-5-oxopentanoic acid] | 102% | 87% | 99%
98% |  | CCOc1ccc2c(c1)CCN(C(=O)CCCCC(=O)O)[C@H]2C(=O)Nc1cc(F)c2c(c1)CCC2(C)C [Example 210, 6-((1R)-6-ethoxy-1-((7-fluoro-1,1-dimethyl-2,3-dihydro-1H-inden-5-yl)carbamoyl)-3,4-dihydroisoquinolin-2(1H)-yl)-6-oxohexanoic acid] | 101% | 76% | 
 |  | CCOc1ccc2c(c1)CCN(C(=O)CCCCC(=O)O)[C@H]2C(=O)Nc1ccc([Si](C)(C)C)c(F)c1 [Example 211, 6-((1R)-6-ethoxy-1-((3-fluoro-4-(trimethylsilyl)phenyl)carbamoyl)-3,4-dihydroisoquinolin-2 (1H)-yl)-6-oxohexanoic acid] | 101% | 92% | 101%
 |  | CCOc1ccc2c(c1)CCN(C(=O)CCCC(=O)O)[C@H]2C(=O)Nc1ccc([Si](C)(C)C)c(C#N)c1 [Example 221, 5-((1R)-1-((3-cyano-4-(trimethylsilyl)phenyl)carbamoyl)-6-ethoxy-3,4-dihydroisoquinolin-2(1H)-yl)-5-oxopentanoic acid] | 102% | 97% | 101%
 |  | CCOc1ccc2c(c1)CCN(C(=O)NCCC(=O)O)[C@H]2C(=O)Nc1cc(F)c([Si](C)(C)C)c(F)c1 [Example 227, N-(((1R)-1-((3,5-difluoro-4-(trimethylsilyl)phenyl)carbamoyl)-6-ethoxy-3,4-dihydroisoquinolin-2(1H)-yl)carbonyl)-beta-alanine] | 102% | 95% | 101%

Structure (SMILES) | inhibition at 3 µM (RORγt [2]; [5]) | inhibition at 1 µM (RORγt [4]) | inhibition at 1 µM (RORγt [1]) | inhibition at 1 µM (RORγt [3]) | inhibition at 3 µM (RORγt [2]; Jurkat)
CC[Si](C)(C)c1c(F)cc(NC(=O)[C@H]2c3ccc(COC)nc3CCN2C(=O)Cc2cc(O)no2)cc1F [Example 173, (5R)-N-(4-(ethyl (dimethyl)silyl)-3,5-difluorophenyl)-6-((3-hydroxy-1,2-oxazol-5-yl)acetyl)-2-(methoxymethyl)-5,6,7,8-tetrahydro-1,6-naphthyridine-5-carboxamide] |  | 101% |  | 97% | 99%
CC[Si](C)(C)c1c(F)cc(NC(=O)[C@H]2c3ccc(COC)nc3CCN2C(=O)c2cc(O)no2)cc1F [Example 174, (5R)-N-(4-(ethyl (dimethyl)silyl)-3,5-difluorophenyl)-6-((3-hydroxy-1,2-oxazol-5-yl)carbonyl)-2-(methoxymethyl)-5,6,7,8-tetrahydro-1,6-naphthyridine-5-carboxamide] |  | 101% |  | 88% | 98%
